[BNA] = bridged nucleic acid nucleotide (BNA), bridge type not specified for this compound; d = 2'-deoxy (DNA)
Tests used:
[1] = test system: human pancreatic cancer SUIT2 cell strain, parent strain; assay: Gemcitabine sensitivity of SUIT2 parent strain; type: cell-based; conditions: SUIT-2
Experimental: (§1) A human pancreatic cancer SUIT2 cell strain was prepared by culturing pancreatic cancer cells resistant to the anticancer agent, gemcitabine, for a long period of time in a medium containing gemcitabine at a low concentration (IC50 value, 100 nM for the resistant strain vs. 5 nM for the parent strain). Subcutaneous tumors were prepared in the same manner as that of Example 10, and 200 μg/200 μL of YB-1 ASO AmNA or control antisense was administered into the blood according to the same protocol (once every two weeks, total 2 times).

[2] = test system: human pancreatic cancer SUIT2 cell strain, resistant strain; assay: Gemcitabine sensitivity of gemcitabine-resistant SUIT2 strain; type: cell-based; conditions: SUIT-2
Experimental: as §1

[3] = General blood and biochemical examinations, mice with Suit2-GR sc tumor; conditions: Suit2-GR sc Tumor; 10 mg/kg BW i.v. once a week for three weeks; blood one week after final treatment
Experimental: (§5) Subcutaneous tumor models were created by subcutaneously transplanting gemcitabine-resistant pancreatic cancer SUIT2-GR cells and large intestine cancer HCT116 cells to the thighs of nude mice. After tumors having a volume of 50 mm^3 were formed, 10 mg/kg BW of #10AmNA YB-1 antisense was administered from the caudal veins once a week over three weeks. The tumor diameters were measured over time.

[4] = General blood and biochemical examinations, mice with HCT116 sc tumor; conditions: 10 mg/kg BW i.v. once a week for three weeks, blood one week after final treatment
Experimental: as §5

HUVEC = assay: Cell cycle analysis by PI flow cytometry, HUVEC; type: cell-based; conditions: 5 nM, 72 hours
Experimental: (§2) In order to elucidate the mechanism of the pancreatic cancer cell and endothelial cell proliferation inhibitory effect observed in Example 2, YB-1 ASO BNA (TCTcctgcaccCTGg, SEQ ID NO: 2, the parts of the capital letters in the sequence correspond to BNAs, the same shall apply to the following examples) was introduced at a concentration of 5 nM into the endothelial cells (1×10^5/well) under the same conditions as mentioned above. After 72 hours from the introduction, the cells were incubated with PI (1 μg/ml) at 37° C. for 30 minutes, and then cell cycle analysis was performed by using a flow cytometer (FACS CantoII).

HPAEC cells = assay: Cell cycle analysis by PI flow cytometry, HPAEC; type: cell-based; conditions: 5 nM, 72 hours
Experimental: as §2

[5] = test system: vascular endothelial HUVEC cells; assay: Annexin V-FITC apoptosis observation; type: cell-based
[6] = Safety of administration of YB-1 ASO BNA into blood, blood biochemical examinations
Experimental: YB-1 ASO BNA (indicated as “ASO-YBX1” in FIG. 7) at a concentration of 100 μg/200 μL or 200 μg/200 μL was administered once into the blood of nude mice from the caudal veins. After 48 hours, blood was collected, and examined by blood biochemical examinations for ALT, T-Bil, BUN, and creatinin in order to evaluate the liver and kidney functions.

[7] = test system: HCT116 large intestine cancer cells; assay: Administration of YB-1 ASO BNA into blood, HCT116 subcutaneous tumor; type: in vivo, nude mice; conditions: 200 μg/200 μL caudal vein, once a week, total 3 times
Excerpt: (§3) The SUIT2 pancreatic cancer cells or HCT116 large intestine cancer cells were subcutaneously transplanted into the thighs of nude mice to prepare subcutaneous tumors in a size of 6 to 7 mm. […] YB-1 ASO BNA suppressed proliferation of the tumors to a size of ¼ to ⅕ of those observed with the control antisense BNA (FIG. 5).

pancreatic cancer cells = assay: Proliferation by MTT assay, pancreatic cancer cells; type: cell-based; conditions: final concentration 50 nM, vs control antisense oligo-nucleic acid
Experimental: (§4) Then, pancreatic cancer and vascular endothelial cell proliferation-suppressing effects of ASO#10 (also referred to as “YB-1 ASO”, TCTcctgcaccCTGg, SEQ ID NO: 2) were examined. The cells were inoculated into wells of a 96-well plate at a density of 60% confluent, ASO#10 was introduced into the pancreatic cancer cells at a final concentration of 50 nM, and endothelial cells at a final concentration of 5 nM on the next day by using the gene transduction reagent Lipofectamine RNAiMax, and then the proliferation ability was periodically measured by the MTT assay method. […] In addition, it was also confirmed that gastric cancer and breast cancer are also knocked down by ASO#10.

YB-1 [8] = assay: YB-1 expression in tumor, liver, kidney after administration into blood, real-time RT-PCR; type: in vivo, nude mice; conditions: HCT116 model, 200 μg/200 μL caudal vein, once a week, total 2 times, 48 hours after final administration
Experimental: After 48 hours from the final administration, subcutaneous tumors, livers, and kidneys were extracted, RNAs were extracted, and YB-1 expression was analyzed by real-time RT-PCR.

[9] = test system: vascular endothelial cells; assay: Proliferation by MTT assay, endothelial cells; type: cell-based; conditions: final concentration 5 nM, vs control antisense oligo-nucleic acid
Experimental: as §4

[10] = test system: SUIT2 pancreatic cancer cells; assay: Administration of YB-1 ASO BNA into blood, SUIT2 subcutaneous tumor; type: in vivo, nude mice; conditions: 200 μg/200 μL caudal vein, once a week, total 3 times
Excerpt: as §3

YB-1 and CD31 = assay: Immunostaining of YB-1 and CD31 in frozen tumor sections; type: in vivo, nude mice; conditions: HCT116 model; vs control antisense BNA
CDK1 and Cyclin B1 = assay: Protein expression of CDK1 and Cyclin B1 in HUVEC and HPAEC cells; type: cell-based; conditions: vs control antisense oligonucleotide
YB-1 [11] = assay: Screening of antisense oligo-nucleic acids by YB-1 expression-inhibitory ability in cancer cells (Lipofectamine RNAiMax); type: cell-based, human
[12] = test system: MiaPaCa-luc pancreatic cancer cells; assay: Local administration into MiaPaCa-luc subcutaneous tumors, IVIS imaging; type: in vivo, nude mice; conditions: 10 μM with atelocollagen 1:1, local, once a week, total twice; vs control antisense oligo BNA
Experimental: The MiaPaCa-luc pancreatic cancer cells stably expressing luciferase were subcutaneously transplanted into the thighs of nude mice to prepare subcutaneous tumors in a size of 6 to 7 mm. A mixture of YB-1 ASO BNA (final concentration, 10 μM) and atelocollagen implant at a volume ration of 1:1 was locally administered into the tumors (once a week, total twice), and the tumor volume (luciferase activity) was evaluated over time by IVIS imaging.

In the case of Nc1ccn([C@@H]2O[C@H](CO)[C@@H](O)C2(F)F)c(=O)n1 [gemcitabine], the IC50 [1] is reported as 5 nM and the IC50 [2] is reported as 100 nM.

Work on “CATttcgaagtACTc (antisense CATTTCGAAGTACTC; AmNA-modified units marked by uppercase, key not given here) [Ctrl]” yielded an ALT [3] of 45 ± 19 IU/L, an AST [3] of 170 ± 183 IU/L and a BUN [3] of 27.9 ± 5.4 mg/dL. The CRE [3] was 0.10 ± 0.03 mg/dL, the HCT [3] was 38.5 ± 2.1% and the HGB [3] was 12.2 ± 0.6 g/dL. The PLT [3] was 100.5 ± 33.3 ×10^4/μl, the RBC [3] was 779 ± 39 ×10^4/μl and the T-BIL [3] was 0.03 ± 0.01 mg/dL. The WBC [3] was 29 ± 12 ×10^2/μl, the ALT [4] was 26 ± 3 IU/L and the AST [4] was 80 ± 10 IU/L. The BUN [4] was 21.2 ± 2.0 mg/dL, the CRE [4] was 0.07 ± 0.03 mg/dL and the HCT [4] was 35.7 ± 2.7%. The HGB [4] was 13.1 ± 0.3 g/dL, the PLT [4] was 136.2 ± 10.8 ×10^4/μl and the RBC [4] was 715 ± 55 ×10^4/μl. For the same compound, the T-BIL [4] was 0.06 ± 0.02 mg/dL and the WBC [4] was 48 ± 8 ×10^2/μl.

“CATttcgaagtACTc (antisense CATTTCGAAGTACTC; sugars from the 5' end [BNA]3 d8 [BNA]3 d1, backbone and methylation of C not given here) [control antisense oligo-BNA, reference compound]” showed a G2/M fraction (HUVEC) of 22.1%, a subG1 fractionation (HUVEC) of 2.0% and a G2/M fraction (HPAEC cells) of 28.5%. The subG1 fractionation (HPAEC cells) was 1.3%, the “Annexin V-positive cells” value [5] was “hardly observed” and the “ALT, T-Bil, BUN, creatinin (liver and kidney functions)” value ([6]; 100 μg/200 μL or 200 μg/200 μL once, caudal vein, 48 hours) was “any functional abnormality was not observed”. For the same compound, the “liver function markers AST and T-Bil” value ([6]; repeatedly administered 3 times) was “did not show any functional abnormality”.

In the case of “TCTcctgcaccCTGg (TCTCCTGCACCCTGG; chemistry not fully specified) [ASO#10]”, the G2/M fraction (HUVEC) is reported as 14.5%, the subG1 fractionation (HUVEC) is reported as 17.7% and the “tumor size as fraction of that with control antisense BNA” value [7] is reported as “¼ to ⅕”. For the same compound, the G2/M fraction (HPAEC cells) was 14.0%, the subG1 fractionation (HPAEC cells) was 18.7% and the “pancreatic cancer cell proliferation inhibitory effect” value (pancreatic cancer cells) was “Significantly higher”. The “YB-1 expression in the tumors, livers, and kidneys as fraction of control antisense BNA” value (YB-1 [8]; listed as YB-1 ASO BNA) was “about ⅓”, the “YB-1 expression in the tumors, livers, and kidneys as fraction of control antisense BNA” value (YB-1 [8]; listed as YB-1 antisense oligo BNA) was “suppresses expression of YB-1” and the “endothelial cell proliferation inhibitory effect” value [9] was “Significantly higher”. For the same compound, the “tumor size as fraction of that with control antisense BNA” value [10] was “¼ to ⅕”, the “expression of YB-1 and CD31 in tumor tissues (immunostaining)” value (YB-1 and CD31) was “reduced” and the “expression levels of CDK1 and Cyclin B1” value (CDK1 and Cyclin B1) was “clearly suppressed”. The “YB-1 knockdown in gastric cancer and breast cancer” value (YB-1 [11]) was “knocked down”, the “Annexin V-positive cells” value [5] was “increase in Annexin V-positive cells” and the “tumor volume (luciferase activity)” value [12] was “significant suppression”.
